# Laboratory results published in patent US20260007639A1, “COMPOUNDS FOR THE TREATMENT OF NEUROMUSCULAR DISORDERS” (NMD PHARMA A/S, priority 2017, published 2026).
# Where two headings read alike, the source gives them in different places.
# What was measured:
# rat soleus muscles [1] = test: Mg2+ concentration required to depress nerve-stimulated force by 50% (Kd,Mg2+), combination with 3,4-AP (Table 5); conditions: pre-incubation with 10 μM 3,4-AP
# Protocol: Muscles from 4-week-old rats were stimulated to contract by activating the motor nerve with short duration pulses in field stimulation. Muscles contracted every 10 min for 2 s in response to 30 Hz stimulation. Four different experimental conditions were used. […] FIG. 6C similar to FIG. 6A but this muscle had been pre-incubated with 3,4-AP. […] The force integral (AUC) was determined at each extracellular Mg^2+ concentration. AUC was plotted against Mg^2+ concentration and the data was fitted to a sigmoidal function. This provided the extracellular Mg^2+ concentration that was required to reduce the nerve-stimulated force to 50% (Mg50) under the four different conditions (see Table 4).
# While the use of tubocurarine mimics conditions with reduced neuromuscular transmission due to post-synaptic dysfunction (myasthenia gravis, neuromuscular blockade), the experiments with elevated extracellular Mg^2+ mimics conditions with pre-synaptic dysfunction akin to a range of neuromuscular disorders including Lambert Eaton syndrome, motor neuron disorders and polyneuropathy. […] Based on this it was determined whether recovery of nerve-stimulated force at elevated extracellular Mg^2+ with CIC-1 inhibiting compounds could be added to force recovery with 3,4-AP. […] To quantify the effect of compounds on Mg^2+ sensitivity the force at the different Mg^2+ concentrations was determined. […]
# rat soleus muscles [2] = test: Recovery of nerve-stimulated force in isolated rat soleus muscles exposed to sub-maximal tubocurarine (Table 1); conditions: % change in AUC compared to AUC before addition, after 40 min in tubocurarine
# Protocol: The motor nerve was stimulated every 10 min for 2 s with 30 Hz with field stimulation using short duration pulses. […] Traces are shown before addition tubocurarine, after 40 min with tubocurarine, and after 110 min tubocurarine. […] This recovery of force was used in Table 1.
# Experiments were performed using rat soleus muscles from either young (4-wk-old) or adult Wistar rats (12-14-week-old). Animal handling, killing and isolation of muscle is described elsewhere All experiments were performed using normal Krebs-Ringer bicarbonate solution (NKR). In solutions with elevated Mg^2+, MgCl^2 was added to NKR-solution causing minor increases in osmolarity and ionic strength. In solutions with elevated K^+, 4 mM NaCl was replaced by 4 mM KCl in the NKR.
# In all contraction experiments, isometric force production was determined and force produced during contractions was quantified by measuring the integral of the force response (AUC). Stimulation and force recordings have been described elsewhere. […] In these latter experiments, extracellular recordings of action potentials (M-waves) could be measured without temporal overlap with stimulation artefacts.
# The aim was to find compounds that by inhibition of CIC-1 channels can recover nerve-stimulated force under conditions of fatigue including conditions where fatigue is caused by compromised neuromuscular transmission. Neuromuscular transmission dysfunction can develop because of both pre- and/or post-synaptic complications in connection with a disorder or as part of neuromuscular blockade during/after surgery. In the initial series of drug testing, experiments were performed with isolated muscles in the presence of sub-maximal ACh receptor antagonist tubocurarine. Since the inclusion of tubocurarine caused a partial loss of neuromuscular transmission this experiment mimics the conditions in myasthenia gravis and neuromuscular blockade. To mimic conditions with pre-synaptic complication (Lambert Eaton syndrome, motor neuron disorder, polyneuropathy) the intact nerve-muscle preparations were incubated at elevated extracellular Mg^2+, which is known to suppress release of ACh from nerve terminals of motor neurons. […]
# For comparison with the muscle only exposed to tubocurarine (grey trace), the two traces have been overlaid. […] For comparison, muscles only exposed to tubocurarine have been included. The dotted line indicates the recovery of force with C8 when compared to the force production before its addition. This value was used in Table 1 for evaluation of the efficacy of the different compounds in recovering force.
# rat soleus muscles [3] = test: Recovery of nerve-stimulated force in isolated rat soleus muscles with ACh receptors inhibited by 2 μM rocuronium; conditions: 50 μM C8 added in the presence of 2 μM rocuronium; 8 muscles; p<0.01
# Protocol: In a separate series of experiments with 8 isolated rat soleus muscles, ACh receptors were inhibited using 2 μM rocuronium, which is a clinically used neuromuscular blocking agent. Under these conditions the nerve-stimulated force was reduced to 51±5% of force before rocuronium. […] This illustrates the potential of these compounds to be used as reversal agents.
# rat soleus muscles [4] = test: Recovery of nerve-stimulated force in isolated rat soleus muscles exposed to 3.5 mM Mg2+ (Table 2); conditions: rat soleus exposed to 3.5 mM Mg2+, force before addition 38 ± 6 % of control
# rat soleus muscles [5] = test: Tubocurarine concentration required to depress nerve-stimulated force by 50% (Kd,tub), combination with neostigmine or pyridostigmine (Table 4); conditions: pre-incubation with 50 μM C8, 10 nM neostigmine or both
# Protocol: Muscles from 4-week-old rats were stimulated to contract by activating the motor nerve with short duration pulses in field stimulation. Muscles contracted every 10 min for 2 s in response to 30 Hz stimulation. Four different experimental conditions were used. […] After this pre-incubation, increasing concentrations of tubocurarine were added to the bath solutions with 60 min (corresponding to six contractions) between each increase in tubocurarine. […] FIG. 5C similar to FIG. 5A but this muscle had been pre-incubated with neostigmine. […] The force integral (AUC) was determined at each tubocurarine concentration. Such AUC determinations were plotted against tubocurarine concentration for each muscle.
# CIC-1 is a novel target in treatment of neuromuscular complications and it was therefore explored whether this approach for symptomatic treatment could be used in combination with existing symptomatic treatment approaches. […] To quantify the effect of compounds on tubocurarine sensitivity, the force at the different tubocurarine concentrations was determined. In plots of nerve-stimulated force against tubocurarine concentration (FIG. 5E) Kd, tub was determined by fitting four parameter sigmoidal functions to the data and the Kd, tub for the different compounds have been collected in Table 4.
# rat soleus muscle = format: cell-based; conditions: μ-conotoxin GiiiB present
# human muscles = conditions: 150 μM C8; isolated human muscle
# [6] = Pharmacokinetic analysis of a single I.P. dose of C8 in rats (Table 6); format: in vivo, Sprague-Dawley rats; conditions: one-bolus I.P. injection
# Protocol: This part of the study was performed by Pipeline Biotech A/S (Spørring, Denmark). […] Plasma concentrations (free and bound) were determined by OnTarget Chemistry (Uppsala, Sweden, Project No.: PB243-001).
# Before conducting in vivo experiments with animal models of myasthenia gravis, some pharmacokinetic details were obtained for C8 in response to one-bolus I.P. injection.
# rats [7] = test: Rotarod running performance of rats after I.P. tubocurarine (myasthenia like phenotype); format: in vivo, rat; conditions: C8 20 mg/kg I.P. 2 hrs before tubocurarine 0.13 mg/kg I.P.; tested 21 minutes after tubocurarine
# Protocol: FIG. 9A illustrates the design of the experiments. Prior to Day One the animals had been familiarized to the rotarod in three training sessions distributed over two days.
# (§1) In both series of experiments, running performance was tested on a rotarod using a protocol where the rod was accelerated gradually over a 5 min period, and the running time and covered distance before falling off the rod were measured.
# Experiments with tubocurarine were carried out over two days, and on each day the effect of tubocurarine on running performance was tested. On the first day only tubocurarine was injected. […] On the second day, the animals were first allowed to run on the rotarod, and all animals performed normally. […] The allocation of the animals into the two groups (C8 or sham) was random and unknown to the experimenter (blinded experimental design).
# In the first series of in vivo experiments, myasthenia gravis was simply mimicked by I.P. injection of tubocurarine (0.13 mg/kg) in animals that had been familiarized to running on the rotarod. On the first of two consecutive days, tubocurarine was injected I.P. and the running performance of the animal was tested 21 minutes after this injection. On the second day of experimentation, the animals first performed a test run to ensure that they were no longer affected by the tubocurarine injected the day before. […]
# rats [8] = test: Rotarod running performance in passive myasthenia gravis induced in rats with MAB35 monoclonal antibody; format: in vivo, rat; conditions: rats with stable reduction in performance after MAB35, versus sham
# Protocol: Prior to I.P. injection of MAB35 the animals had been familiarized to the rotarod over three training sessions distributed over two days. […] After this treatment performance was monitored every second hour. * Indicates significant different as evaluated using student t-test.
# as §1
# In experiments with MAB35, animals were first familiarized with the rotarod over two consecutive days and then injected I.P. with MAB35. After injection, rotarod performance was then again monitored regularly over the consecutive two days. […] A considerable number of animals, however, became moribund failing to walk and they had altered ventilation (rapid) and pronounced ptosis. These animals were not included in experiments.
# In the last series of experiments, myasthenia gravis was mimicked in rats by inducing an immunological reaction against the motor endplate of muscle fibers using monoclonal antibody against the nicotinic ACh receptor in muscle fibers. Again the animals had been familiarized to the rotarod before the MAB35 injection. […] From FIG. 10 it can be seen that upon injection sham treatment the performance further declined.
compound,measurement,setting,value
"Nc1ccncc1N [3,4-AP, 3,4-diaminopyridine]",nerve-stimulated force at elevated Mg2+ compared to control,rat soleus muscles [1],remain elevated
"C[C@H](Oc1ccc(Br)cc1)C(=O)O [Compound C8, (2S)-2-(4-bromophenoxy)propanoic acid]",50 μM % change after addition (AUC force),rat soleus muscles [2]; 50 μM compound,16%
same,150 μM % change after addition (AUC force),rat soleus muscles [2]; 150 μM compound,23%
same,"nerve-stimulated contractile force, % of force before rocuronium",rat soleus muscles [3],81±4%
same,50 μM % change after addition (AUC force),rat soleus muscles [4]; 50 μM compound,13 ± 4%
same,100 μM % change after addition (AUC force),rat soleus muscles [4]; 100 μM compound,26 ± 5%
same,nerve-stimulated force at different tubocurarine concentrations compared to control,rat soleus muscles [5],elevated nerve-stimulated force
same,EPP amplitude compared to control conditions,rat soleus muscle; 10 μM C8,significantly larger EPPs
same,EPP amplitude compared to control conditions,rat soleus muscle; 25 μM C8,significantly larger EPPs
same,contractile force at elevated K+ and TTX,human muscles,markedly recovery
same,AUC 0-inf_obs,[6],205.381 µg·h/mL
same,AUC 0-t,[6],203.635 µg·h/mL
same,C0,[6],24533 ng/mL
same,CI_obs,[6],48.69 mL/h
same,Cmax,[6],44600 ng/mL
same,Tmax,[6],30 min
same,VD_obs,[6],259.62 mL
same,t1/2,[6],3.70 h
same,increase in running performance (distance on rotarod) on the second day compared to the first day,rats [7],around 150%
same,rotarod running performance after treatment,rats [8]; C8 20 mg/kg,decline was reduced
same,rotarod running performance after treatment,rats [8]; C8 30 mg/kg,clear recovery of performance
"CN(C)C(=O)Oc1cccc([N+](C)(C)C)c1 [neostigmine, reference compound]",nerve-stimulated force at different tubocurarine concentrations compared to control,rat soleus muscles [5],elevated nerve-stimulated force
